Test system: HIV-1 single-round infectious reporter virus
Assay: Single-round infectious HIV-1 luciferase reporter virus infection of HeLa CD4 cells (antiviral EC50)
Assay type: cell-based
Details: Human immunodeficiency virus 1, HeLa, read-out: EC50 Group from Table 3
Method: • Virus production—Human embryonic Kidney cell line, 293T, was propagated in Dulbecco's Modified Eagle Medium (Invitrogen, Carlsbad, Calif.) containing 10% fetal Bovine serum (FBS, Sigma, St. Louis, Mo.). • Virus infection—Human epithelial cell line, HeLa, expressing the HIV-1 receptor CD4 was propagated in Dulbecco's Modified Eagle Medium (Invitrogen, Carlsbad, Calif.) containing 10% fetal Bovine serum (FBS, Sigma, St. Louis, Mo.) and supplemented with 0.2 mg/mL Geneticin (Invitrogen, Carlsbad, Calif.). Virus-Single-round infectious reporter virus was produced by co-transfecting human embryonic Kidney 293 cells with an HIV-1 envelope DNA expression vector and a proviral cDNA containing an envelope deletion mutation and the luciferase reporter gene inserted in place of HIV-1 nef sequences (Chen et al, Ref. 41). Transfections were performed using lipofectAMINE PLUS reagent as described by the manufacturer (Invitrogen, Carlsbad, Calif.). Experiment • 1. HeLa CD4 cells were plated in 96 well plates at a cell density of 1×10^4 cells per well in 100 μl Dulbecco's Modified Eagle Medium containing 10% fetal Bovine serum and incubated overnight. • 2. Compound was added in a 2 μl dimethylsulfoxide solution, so that the final assay concentration would be ≦10 μM. • 3. 100 μl of single-round infectious reporter virus in Dulbecco's Modified Eagle Medium was then added to the plated cells and compound at an approximate multiplicity of infection (MOI) of 0.01, resulting in a final volume of 200 μl per well. • 4. Virally-infected cells were incubated at 37 degrees Celsius, in a CO2 incubator, and harvested 72 h after infection. • 5. Viral infection was monitored by measuring luciferase expression from viral DNA in the infected cells using a luciferase reporter gene assay kit, as described by the manufacturer (Roche Molecular Biochemicals, Indianapolis, Ind.). Infected cell supernatants were removed and 50 μl of lysis buffer was added per well. After 15 minutes, 50 μl of freshly-reconstituted luciferase assay reagent was added per well. Luciferase activity was then quantified by measuring luminescence using a Wallac microbeta scintillation counter. • 6. The percent inhibition for each compound was calculated by quantifying the level of luciferase expression in cells infected in the presence of each compound as a percentage of that observed for cells infected in the absence of compound and subtracting such a determined value from 100. • 7. An EC50 provides a method for comparing the antiviral potency of the compounds of this disclosure. The effective concentration for fifty percent inhibition (EC50) was calculated with the Microsoft Excel Xlfit curve fitting software. For each compound, curves were generated from percent inhibition calculated at 10 different concentrations by using a four parameter logistic model (model 205). Table 3 is the key for the data in Table 4. Results

Row | SMILES | EC50 [nM]
1 | O=C(C(=O)N1CCN(c2ccnn2-c2ccccc2)CC1)c1c[nH]c2c(-n3ccnn3)ncc(F)c12 [G-9b] | < 500
2 | CNC(=O)c1ncc(OC)c2c(C(=O)C(=O)N3CCN(c4nnnn4-c4ccccc4)CC3)c[nH]c12 [B-65] | < 500
3 | COc1cnc(-n2cnc(C)n2)c2[nH]cc(C(=O)C(=O)N3CCC(n4ccnc4-c4ccccc4)CC3)c12 [G-11b] | > 500
4 | O=C(C(=O)N1CCN([C@H]2CCCC[C@H]2c2ccccc2)CC1)c1c[nH]c2c(-n3ccnn3)ncc(F)c12 [A-19] | < 500
5 | COc1cnc(-c2ccn(C)n2)c2[nH]cc(C(=O)C(=O)N3CCN(c4nnnn4-c4ccccn4)CC3)c12 [B-73] | < 500
6 | O=C(C(=O)N1CCC(c2nccn2-c2ccccc2)CC1)c1c[nH]c2c(-n3ccnn3)ncc(F)c12 [G-18a] | < 500
7 | COc1cnc(-n2cnc(C)n2)c2[nH]cc(C(=O)C(=O)N3CCN(c4nnnn4-c4ccccc4)[C@@H](C)C3)c12 [A-60] | < 500
8 | Cc1cccnc1N1CCN(C(=O)C(=O)c2c[nH]c3c(-n4ccnn4)ncc(F)c23)CC1 [D-6] | < 500
9 | COc1cnc(-n2cnc(C)n2)c2[nH]cc(C(=O)C(=O)N3CCN(c4cnn(C)c4-c4ccccc4)CC3)c12 [G-13b] | < 500
10 | CNCc1nc(-c2ncc(OC)c3c(C(=O)C(=O)N4CCN(c5nnnn5-c5ccccc5)CC4)c[nH]c23)cs1 [B-59] | < 500
11 | CC(=O)NCCNC(=O)c1cc(-c2ncc(F)c3c(C(=O)C(=O)N4CCN(c5nnnn5-c5ccccc5)CC4)c[nH]c23)n[nH]1 [F-14] | < 500
12 | O=C(C(=O)N1CCN(c2nc(-c3ccccc3)cs2)CC1)c1c[nH]c2c(-n3ccnn3)ncc(F)c12 [A-8] | < 500
13 | COc1cnc(-c2cscn2)c2[nH]cc(C(=O)C(=O)N3CCN(c4nnnn4-c4ccccn4)CC3)c12 [B-70] | < 500
14 | O=C(C(=O)N1CCN(c2ncnn2-c2ccccc2)CC1)c1c[nH]c2c(-n3ccnn3)ncc(F)c12 [G-27a] | < 500
15 | O=C(O)c1cc(-c2ncc(F)c3c(C(=O)C(=O)N4CCN(c5nnnn5-c5ccccc5)CC4)c[nH]c23)n[nH]1 [B-34] | < 500
16 | CNC(=O)Cn1ccc(-c2ncc(OC)c3c(C(=O)C(=O)N4CCN(c5nnnn5-c5ccccn5)CC4)c[nH]c23)n1 [B-77] | < 500
17 | CCOC(=O)CCCC(=O)c1cccnc1N1CCN(C(=O)C(=O)c2c[nH]c3c(-n4ccnn4)ncc(F)c23)CC1 [D-41] | > 500
18 | CCOC(=O)c1cc(-c2ncc(F)c3c(C(=O)C(=O)N4CCN(c5nnnn5-c5ccccc5)CC4)cn(C)c23)nn1C [B-60] | < 500
19 | O=C(C(=O)N1CCN(c2ncccc2-c2ccccc2)CC1)c1c[nH]c2c(-n3ccnn3)ncc(F)c12 [G-3b] | < 500
20 | O=C(C(=O)N1CCN(c2nsnc2-c2ccccc2)CC1)c1c[nH]c2c(-n3ccnn3)ncc(F)c12 [A-13] | < 500
21 | COc1cnc(-n2cnc(C)n2)c2[nH]cc(C(=O)C(=O)N3CCN(c4ncccc4C#N)CC3)c12 [D-1] | < 500
22 | O=C(C(=O)N1CCN(c2cncnc2-c2ccccc2)CC1)c1c[nH]c2c(-n3ccnn3)ncc(F)c12 [G-19a] | < 500
23 | CCOC(=O)c1cc(-c2ncc(F)c3c(C(=O)C(=O)N4CCN(c5c[nH]nc5-c5ccccc5)CC4)c[nH]c23)n[nH]1 [B-51] | < 500
24 | COc1cnc(-n2cnc(C)n2)c2[nH]cc(C(=O)C(=O)N3CCN(c4nsnc4Cl)CC3)c12 [D-20] | < 500
25 | COc1cnc(-n2cnc(C)n2)c2[nH]cc(C(=O)C(=O)N3CCN(c4cnnn4-c4ccccn4)CC3)c12 [G-22b] | < 500

Row | SMILES | EC50 [nM]
26 | CCOc1nccnc1N1CCN(C(=O)C(=O)c2c[nH]c3c(-n4cnc(C)n4)ncc(OC)c23)CC1 [D-17] | < 500
27 | COc1cnc(-n2cnc(C)n2)c2[nH]cc(C(=O)C(=O)N3CCN(c4nnnn4-c4ccccc4)[C@H](C)C3)c12 [A-46] | < 500
28 | COc1cnc(-n2cnc(C)n2)c2[nH]cc(C(=O)C(=O)N3CCN(c4nc(C)nc5scc(-c6ccccc6)c45)C[C@H]3C)c12 [D-10] | < 500
29 | COc1cnc(-n2cnc(C)n2)c2[nH]cc(C(=O)C(=O)N3CCN(c4ccnn4-c4ccccc4)CC3)c12 [G-9a] | < 500
30 | O=C(C(=O)N1CCN(c2nnnn2-c2ccccc2)CC1)c1c[nH]c2cccc(F)c12 [A-27] | < 500
31 | O=C(NCCc1ccncc1)c1cc(-c2ncc(F)c3c(C(=O)C(=O)N4CCN(c5nnnn5-c5ccccc5)CC4)c[nH]c23)n[nH]1 [B-41] | < 500
32 | COc1cnc(-n2ccnn2)c2[nH]cc(C(=O)C(=O)N3CCN(c4nnnn4-c4ccccc4)CC3)c12 [A-1] | < 500
33 | COc1cnc(-c2cc[nH]n2)c2[nH]cc(C(=O)C(=O)N3CCN(c4nnnn4-c4ccccn4)CC3)c12 [B-72] | < 500
34 | COc1cnc(-n2cnc(C)n2)c2[nH]cc(C(=O)C(=O)N3CCN(c4nc(N(C)C)nn4-c4ccccc4)CC3)c12 [G-4b] | < 500
35 | O=C(C(=O)N1CCC(N2CCN=C2c2ccccc2)CC1)c1c[nH]c2c(-n3ccnn3)ncc(F)c12 [G-10a] | > 500
36 | COC(=O)c1ccc(F)c2c(C(=O)C(=O)N3CCN(c4nnnn4-c4ccccc4)CC3)c[nH]c12 [A-25] | < 500
37 | O=C(C(=O)N1CCN(c2ccnn2-c2ccccn2)CC1)c1c[nH]c2c(-n3ccnn3)ncc(F)c12 [E-14, 1-(4-fluoro-7-(1H-1,2,3-triazol-1-yl)-1H-pyrrolo[2,3-c]pyridinyl-3-yl)-2-(4-(1-(pyridin-2-yl)-1H-pyrazol-5-yl)piperazin-1-yl)ethane-1,2-dione] | < 500
38 | CC(C)Oc1nccnc1N1CCN(C(=O)C(=O)c2c[nH]c3c(-n4ccnn4)ncc(F)c23)CC1 [D-35] | < 500
39 | COc1cnc(-n2cnc(C)n2)c2[nH]cc(C(=O)C(=O)N3CCN(c4nnnn4-c4cccc(O)n4)CC3)c12 [E-12c] | < 500
40 | NC(=O)c1ncc(F)c2c(C(=O)C(=O)N3CCN(c4nnnn4-c4ccccc4)CC3)c[nH]c12 [B-50] | < 500
41 | CCOc1ncc(-c2ncc(OC)c3c(C(=O)C(=O)N4CCN(c5nnnn5-c5ccccn5)CC4)c[nH]c23)s1 [B-89] | < 500
42 | O=C(C(=O)N1CCN(c2nnnn2-c2ccccc2)CC1)c1c[nH]c2c(-c3ccn(CCN4CCOCC4)n3)ncc(F)c12 [B-31] | < 500
43 | Cn1ccc(-c2ncc(F)c3c(C(=O)C(=O)N4CCN(c5nnnn5-c5ccccc5)CC4)c[nH]c23)n1 [B-29] | < 500
44 | O=C(C(=O)N1CCN(c2nnnn2-c2ccccn2)CC1)c1c[nH]c2c(-n3ccnn3)ncc(F)c12 [E-1, 1-(4-fluoro-7-(1H-1,2,3-triazol-1-yl)-1H-pyrrolo[2,3-c]pyridinyl-3-yl)-2-(4-(1-(pyridin-2-yl)-1H-tetrazol-5-yl)piperazin-1-yl)ethane-1,2-dione] | < 500
45 | COc1cnc(-c2ncc(OC)c3c(C(=O)C(=O)N4CCN(c5nnnn5-c5ccccc5)CC4)c[nH]c23)c2[nH]ccc12 [A-64] | < 500
46 | COc1nc(-c2ncc(OC)c3c(C(=O)C(=O)N4CCN(c5nnnn5-c5ccccn5)CC4)c[nH]c23)cs1 [B-69] | < 500
47 | COc1cnc(-n2cnc(C)n2)c2[nH]cc(C(=O)C(=O)N3CCN(c4nnnn4-c4cccc(F)n4)CC3)c12 [E-12a] | < 500
48 | COCCN1CCN(C(=O)c2cc(-c3ncc(F)c4c(C(=O)C(=O)N5CCN(c6nnnn6-c6ccccc6)CC5)c[nH]c34)n[nH]2)CC1 [F-15] | < 500
49 | Cn1ncc(N2CCN(C(=O)C(=O)c3c[nH]c4c(-n5ccnn5)ncc(F)c34)CC2)c1-c1ccccc1 [G-13a] | < 500

From patent US7807676B2, “Diketo-Piperazine and Piperidine derivatives as antiviral agents” (priority 2006, dated 2010)
